The text below walks through data of PubChem BioAssay (NCI).

Each structure is given as a SMILES string. Several values for one entry are separate records, joined by “and”; a condition that tells them apart may be missing. Equal entries are not always repeated.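 Assay format: 96-well plates, 48-hour exposure. Here, GI50 denotes the concentration required for 50% inhibition of growth. TGI: concentration producing complete growth inhibition.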

What all share (assay): inhibition of tumour cell growth, NCI panel, 48 h
Assay [1] concerns IGROV1 ovarian.
For assay [2], the system named is HCT-15 colon.
In assay [3] the test system is K-562 leukemia.
The subject of assay [4] is UO-31 renal.
Assay [5] has as its system SK-MEL-2 melanoma.
Assay [6] concerns OVCAR-8 ovarian.
In assay [7] the test system is MOLT-4 leukemia.
In assay [8] the test system is OVCAR-3 ovarian.
Assay [9] has as its system OVCAR-4 ovarian.
For assay [10], the system named is UACC-62 melanoma.

Regarding `Cc1cc(=O)[nH]c2cc3oc4ccccc4c3cc12`, the TGI in assay [1], in assay [2], in assay [3], in assay [4], in assay [5] and in assay [6] was greater than 100 µM throughout. Moreover, the TGI in [7] is greater than 48.5 µM; in [8] it was greater than 89.4 µM; in [9], greater than 100 µM; in assay [10] it was greater than 100 µM.
For the molecule `COc1cc2cnc3c4cc(OC(C)C)c(OC)cc4ccc3c2cc1OC`, the TGI in assay [1], in assay [2], in [3], in assay [4], in [5] and in assay [6] was greater than 100 µM throughout. Moreover, the TGI in assay [7], in assay [8], in assay [9] and in assay [10] was greater than 100 µM throughout.
Consider `O=C1NNC(=O)c2ccccc2SSc2ccccc2C(=O)NNC(=O)c2ccccc2SSc2ccccc21`, for which the GI50 is 6.66 µM in [1]; 4.61 µM in assay [2]; 3.76 µM in assay [3]; 4.93 µM in assay [5]; 15.4 µM in [6]; 8.34 µM in assay [10]. Besides, the TGI in [1] is 50 µM and > 100 µM; in [2], 50 µM and 37.1 µM; in assay [3], 50 µM and > 100 µM; in assay [4], greater than 100 µM; in assay [5], 50 µM and > 100 µM; in assay [6], 50 µM and > 100 µM. Further, the TGI in assay [7] was 50 µM and 17.3 µM; in assay [8], 50 µM and > 100 µM; in assay [9], 50 µM and > 100 µM; in assay [10] it was 50 µM and > 100 µM.
As to `COc1ccc(/C=C\c2cc(OC)c3c(c2)OCO3)c(O)c1O`, the TGI in assay [1] worked out at 20.9 µM; in assay [2], 59.8 µM; in [3], 27 µM; in assay [4], 12 µM; in assay [5], 42.6 µM; in assay [6] it was 32.5 µM. In addition, the TGI is 47.5 µM in assay [7], 47.4 µM in [8], 20.6 µM in assay [9] and 14 µM in [10].
On to `O=C1C2=C(SCCS2)C(=O)c2ccccc21`, for which the TGI was 3.17 µM in assay [1]; 3.08 µM in assay [2]; 5.14 µM in assay [3]; 3.37 µM in assay [4]; 4.07 µM in [5]; 3.04 µM in assay [6]. For the same molecule, the TGI came out at 27.7 µM in assay [7], 3.08 µM in [8], 3.01 µM in assay [9] and 3.04 µM in [10].
Take `COc1ccc2c(c1)C(=O)/C(=C/c1ccc(OCC(=O)Nc3nccs3)cc1)O2`: the GI50 in assay [1] was 0.0169 µM; in assay [2], 4.51 µM; in [3], 1.84 µM; in assay [4], 0.215 µM; in assay [5], 0.231 µM; in assay [6], 17.2 µM. Also, the GI50 in [7] was 2.09 µM; in assay [8] it was 0.204 µM; in assay [9], 2.26 µM; in assay [10], 9.71 µM. In addition, the TGI in assay [1] is 0.036 µM; in assay [2], 17.8 µM; in [4] it was 0.374 µM; in assay [5], 0.588 µM; in [6] it was greater than 60.5 µM; in assay [7] it was greater than 100 µM. The values for the TGI in [8], in assay [9] and in assay [10] were 0.398 µM, 14.5 µM and 23.2 µM, respectively.
Consider `NC(CSC(c1ccccc1)(c1ccccc1)c1ccc2c(c1)OCO2)C(=O)O` (stereo not given), for which the GI50 in [1] was 2.5 µM; in assay [2], 1.15 µM; in assay [3] it was 0.406 µM; in assay [4], 9.6 µM; in assay [5] it was 0.511 µM; in assay [6], 0.595 µM. In addition, the GI50 in [7] is 0.631 µM; in assay [8], 0.512 µM; in [9], 7.81 µM; in assay [10] it was 0.57 µM. The TGI was greater than 100 µM in assay [1]; greater than 81 µM in [2]; greater than 100 µM in assay [3]; greater than 100 µM in [4]; 27.4 µM in [5]; greater than 100 µM in [6]. Further, the TGI was 17 µM in assay [7], 16.4 µM in assay [8], greater than 81.6 µM in assay [9] and greater than 62.9 µM in assay [10].
Regarding `O=C(/C=C/c1ccccc1Cl)c1ccc(Cl)c(Cl)c1`, the TGI in assay [1] was found to be 25 µM; in [2], 32.2 µM; in assay [3] it was 67.9 µM; in [4], 30.9 µM; in assay [5] it was 36.9 µM; in assay [6], 33 µM. In addition, the TGI in [7] amounted to 61.4 µM; in assay [8] it was 28.7 µM; in assay [9], 25.5 µM; in assay [10], 45.6 µM.
Turning to `COc1ccc2nc3cc(Cl)ccc3c(Sc3ccccc3[N+](=O)[O-])c2c1`, the TGI in assay [1], in assay [2], in assay [3], in [4], in assay [5] and in [6] was greater than 100 µM in each case. For the same molecule, the TGI in assay [7], in assay [8], in assay [9] and in assay [10] was greater than 100 µM in each case.
Regarding `CCCCCCCC(=O)SCC/C=C/[C@@H]1CC(=O)NCc2cccc(n2)C2=N[C@@](C)(CS2)C(=O)N[C@@H](C(C)C)C(=O)N1`, the GI50 in assay [1] was 0.224 µM; in assay [2], 14.3 µM; in assay [3] it was 0.658 µM; in assay [4] it was 4.54 µM; in [5], 1.03 µM; in assay [6], 0.421 µM. Also, the GI50 in assay [7] is 1.01 µM; in [8], 0.402 µM; in assay [9], 0.766 µM; in [10] it was 0.192 µM. Also, the TGI in assay [1] is 15.2 µM; in assay [2], greater than 33.3 µM; in assay [3], greater than 33.3 µM; in assay [4], greater than 33.3 µM; in assay [5] it was 15.6 µM; in assay [6], greater than 33.3 µM. In addition, the TGI was greater than 33.3 µM in assay [7], 9.27 µM in assay [8], greater than 33.3 µM in assay [9] and 4.88 µM in assay [10].
For the molecule `C=C(CNCCO)[C@@H]1CC[C@]2(CO)CC[C@]3(C)[C@H](CC[C@@H]4[C@@]5(C)CCC(N)C(C)(C)[C@@H]5CC[C@]43C)[C@@H]12` (stereo not given in full), the GI50 in assay [1] is 6.05 µM; in assay [2], 5.57 µM; in [3], 1.48 µM; in assay [4] it was 13.2 µM; in assay [5] it was 1.98 µM; in assay [6] it was 1.82 µM. Also, the GI50 in assay [7] is 1.99 µM; in assay [8] it was 7.71 µM; in [9] it was 3.42 µM; in [10], 1.8 µM. Also, the TGI in [1] came to 20.8 µM; in [2], 19 µM; in [3], 3.33 µM; in assay [4], 26.8 µM; in [5], 3.65 µM; in assay [6] it was 3.74 µM. Besides, the TGI in assay [7] amounted to 5.84 µM; in [8] it was 20.7 µM; in [9], 13.6 µM; in [10], 3.36 µM.
For the molecule `COc1ccccc1NC(=O)CC(=O)n1nc(C)c(N=Nc2ccccc2C(=O)O)c1C`, the TGI in assay [1], in assay [2], in assay [3], in assay [4], in [5] and in assay [6] was greater than 100 µM in each case. The TGI in assay [7], in assay [8], in assay [9] and in [10] was greater than 100 µM each time.
Turning to `Cc1nc2c(nc1C)C(=O)c1ccccc1C2=O`, the TGI in assay [1] was 27.2 µM; in assay [2] it was 8.3 µM; in [3] it was 32.1 µM; in [4], 36.2 µM; in assay [5], 6.57 µM; in assay [6], 42.9 µM. For the same molecule, the TGI came to 48 µM in assay [7], 13.3 µM in assay [8], 14.1 µM in assay [9] and 2.42 µM in assay [10].
For `CN(CC(=O)O)S(=O)(=O)c1ccc2ccccc2c1`, the TGI in assay [1], in assay [2], in assay [3], in assay [4], in [5] and in assay [6] was greater than 100 µM each time. Further, the TGI in assay [7], in assay [8], in assay [9] and in [10] was greater than 100 µM each time.
Consider `O=C1c2ccccc2C(=O)c2sc(Nc3cccc(Cl)c3)nc21`, for which the TGI came out at 5.9 µM in assay [1]; 3.69 µM in assay [2]; 4.36 µM in assay [3]; 4 µM in assay [4]; 3.79 µM in assay [5]; 3.27 µM in assay [6]. Besides, the TGI was found to be 3.05 µM in assay [7], 1.8 µM in assay [8], 2.72 µM in [9] and 3.25 µM in assay [10].
